These results are taken from PMC3783656 (Bioorganic & medicinal chemistry letters, 2013).

≈ marks a conversion by molar mass, not a printed value. Read-outs that look alike come from different tables or passages of the source. Where only a bound is given, the exact number is not on record here.

For data set [1], the target named is T1, CK1δ (Homo sapiens, UniProt P48730). The experiment in a line: CK1δ inhibition, Reaction Biology Corp. In kind it is biochemical. Particulars: for IC50: read-out: IC50 CK1δ.
In data set [2] the test system is CK1. As to conditions: cited from earlier work.
In data set [3] the target is T1, CK1δ. The experiment in a line: CK1δ inhibition, in-house kinase inhibition assay. It is filed as biochemical. As to conditions: read-out: IC50 CK1δ.
The nature of a further data set: Solubility in PBS buffer. It is filed as physicochemical.
In data set [4] the test system is human melanoma A375 cell line. In words: MTT assay against A375 melanoma cells. It is filed as cell-based. In general terms: Formazan colour is commonly taken as a measure of viable cells.
The target in a further data set is CK1ε (Homo sapiens, UniProt P49674). In words: CK1ε inhibition, Reaction Biology Corporation. In kind it is biochemical.
Data set [5] relates to CK1. Particulars: cited from earlier work. This is another data set of the same source.
Data set [6] can be described thus: Solubility in DMEM/10% FBS. It is filed as physicochemical.
In the next data set the target is cytochrome P450 1A2 (Homo sapiens, UniProt P05177). The experiment in a line: Cyp assay, 1A2. It is filed as in vitro ADME. Particulars: at 10 μM.
Another data set in a line: Mouse PK studies. It is filed as in vivo. Particulars: IV dosing, 1 mg/kg, 10/10/80 DMSO/Tween/water.
A short description of data set [7]: Microsome stability, rat liver microsomes.
Data set [8] can be described thus: Microsome stability, human liver microsomes.
Data set [9] in a line: Microsome stability, mouse liver microsomes. Background: Liver microsomes are vesicles of endoplasmic reticulum, rich in cytochrome P450 enzymes.
Another data set concerns 442 kinases. The experiment in a line: DiscoverRX KINOMEscan analysis of 442 kinases. Particulars: 10 μM, KINOMEscan of 442 kinases. In kind it is binding.
Setting [10] is: data obtained by Reaction Biology Corp.
Where [11] appears, read: read-out: MTT assay A375 EC50, human A375 melanoma cell line.

T1 sequence (P48730 whole entry): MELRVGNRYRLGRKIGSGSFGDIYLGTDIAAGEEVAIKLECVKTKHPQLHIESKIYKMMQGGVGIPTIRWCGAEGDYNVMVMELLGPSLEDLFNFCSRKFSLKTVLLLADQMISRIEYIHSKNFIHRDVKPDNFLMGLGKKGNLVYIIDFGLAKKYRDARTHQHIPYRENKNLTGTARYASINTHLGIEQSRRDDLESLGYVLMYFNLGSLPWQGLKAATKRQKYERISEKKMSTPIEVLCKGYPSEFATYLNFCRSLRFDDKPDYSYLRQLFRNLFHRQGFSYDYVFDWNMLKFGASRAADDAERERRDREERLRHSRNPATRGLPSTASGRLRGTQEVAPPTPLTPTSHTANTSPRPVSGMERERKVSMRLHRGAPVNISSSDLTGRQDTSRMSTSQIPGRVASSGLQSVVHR
Chain of CK1ε (P49674 whole entry): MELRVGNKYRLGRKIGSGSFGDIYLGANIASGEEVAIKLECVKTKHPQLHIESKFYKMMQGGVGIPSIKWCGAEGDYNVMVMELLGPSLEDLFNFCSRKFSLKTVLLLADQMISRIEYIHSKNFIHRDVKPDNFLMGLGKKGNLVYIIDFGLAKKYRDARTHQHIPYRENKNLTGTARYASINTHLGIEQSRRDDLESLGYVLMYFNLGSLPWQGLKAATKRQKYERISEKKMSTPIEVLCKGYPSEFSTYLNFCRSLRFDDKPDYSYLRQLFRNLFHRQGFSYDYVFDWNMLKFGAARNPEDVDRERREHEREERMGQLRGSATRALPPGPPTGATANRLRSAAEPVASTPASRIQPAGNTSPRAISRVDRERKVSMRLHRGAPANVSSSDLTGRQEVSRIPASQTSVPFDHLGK
Chain of cytochrome P450 1A2 (P05177 whole entry, species assumed): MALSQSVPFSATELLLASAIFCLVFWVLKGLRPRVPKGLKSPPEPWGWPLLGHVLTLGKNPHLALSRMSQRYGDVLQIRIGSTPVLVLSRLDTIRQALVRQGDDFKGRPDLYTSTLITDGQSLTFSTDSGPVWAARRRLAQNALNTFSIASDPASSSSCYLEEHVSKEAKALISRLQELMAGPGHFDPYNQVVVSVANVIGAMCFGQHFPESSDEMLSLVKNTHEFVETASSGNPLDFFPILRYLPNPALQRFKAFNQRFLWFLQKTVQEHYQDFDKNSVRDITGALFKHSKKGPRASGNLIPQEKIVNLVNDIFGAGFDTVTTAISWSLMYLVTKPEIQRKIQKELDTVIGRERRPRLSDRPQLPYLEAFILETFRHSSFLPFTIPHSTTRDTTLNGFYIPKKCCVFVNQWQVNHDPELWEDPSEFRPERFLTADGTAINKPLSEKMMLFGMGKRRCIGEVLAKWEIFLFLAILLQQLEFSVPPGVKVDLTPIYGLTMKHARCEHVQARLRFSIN

Turning to `FC(F)(F)c1cccc2[nH]c(CNc3nc(N4CCOCC4)nc4c3ncn4-c3ccsc3)nc12` [SR-1272], the IC50 on CK1δ [1] (setting [10]) worked out at 128 nM.
The same measure, in the same setting: for `CS(=O)(=O)c1ccc2[nH]c(CNc3nc(N4CCOCC4)nc4c3ncn4-c3ccsc3)nc2c1` [SR-2797] the value was 10 nM.
For `NCCNS(=O)(=O)c1ccc(Cl)c2ccncc12` [CKI-7], in the data set on CK1 [2] (read-out: CK1 inhibition), the IC50 was 6000 nM.
Regarding `O=[N+]([O-])c1cccc2[nH]c(CNc3nc(N4CCOCC4)nc4c3ncn4-c3cc(F)cc(F)c3)nc12` [SR-2368], the IC50 on CK1δ [3] came out at 75 nM.
Consider `Clc1ccc2[nH]c(CNc3nc(N4CCNCC4)nc4c3ncn4-c3ccsc3)nc2c1` [SR-2876], for which the IC50 at CK1δ [3] was found to be 51 nM. Moreover, the Solubility (commonly the concentration that dissolves in the medium under given conditions) in “Solubility in PBS buffer” was 54 µM (≈ 25.2 µg/mL).
For the compound `O=C(Nc1nc2ccc(C(F)(F)F)cc2[nH]1)c1csc(NC(=O)c2ccccc2OC(F)(F)F)n1` [Bischof-5, reference compound], the EC50 – broadly, the concentration giving half of the maximal effect – in [4] (setting [11]) was 2300 nM.
As to `CC(C)(C)c1cc(NC(=O)Nc2ccc(-c3cn4c(n3)sc3cc(OCCN5CCOCC5)ccc34)cc2)no1` [AC220, reference compound], at CK1δ [1], the “Activity against CK1δ” value is “inactive”. Moreover, the “Activity against CK1ε” value on CK1ε was “inactive”. The EC50 in data set [4] (Homo sapiens, A-375, read-out: MTT assay A375 EC50) amounted to 1570 nM.
`O=[N+]([O-])c1cccc2[nH]c(CNc3nc(N4CCOCC4)nc4c3ncn4-c3cccc(F)c3)nc12` [SR-2364]: the IC50 at CK1δ [3] was 57 nM.
With `CC1CN(c2nc(NCc3nc4ccccc4[nH]3)c3ncn(-c4ccsc4)c3n2)CCN1` (stereo not drawn) [SR-2915], the IC50 at CK1δ [3] was determined as 199 nM.
On to `O=[N+]([O-])c1ccc2[nH]c(CNc3nc(N4CCOCC4)nc4c3ncn4-c3ccsc3)nc2c1` [SR-1278], for which the IC50 on CK1δ [1] (setting [10]) was determined as 21 nM.
For `NC(=O)c1ccc(-c2nc(-c3ccc4c(c3)OCCO4)c(-c3ccccn3)[nH]2)cc1` [Compound D4476], the EC50 in data set [4] (setting [11]) was found to be 10000 nM. Besides, the IC50 in the data set on CK1 [2] (read-out: CK1 inhibition in vitro, in vitro) was […]. Moreover, the “Activity in cell-based assays” value in the data set with CK1 [5] (cell-based assays) is 20 to 50 µM.
In the case of `COc1ccc2[nH]c(CNc3nc(N4CCOCC4)nc4c3ncn4-c3ccsc3)nc2c1` [SR-1279], the IC50 on CK1δ [1] (setting [10]) is 17 nM.
For `c1ccc2[nH]c(CNc3nc(N4CCOCC4)nc4c3ncn4-c3ccsc3)nc2c1` [SR-653234], at CK1δ [1] (setting [10]), the IC50 was found to be 160 nM. The IC50 on CK1ε (read-out: CK1ε Inh IC50, data obtained by Reaction Biology Corporation) is 540 nM. Besides, the EC50 in data set [4] (setting [11]) was found to be 111 nM. Also, in [6], the Solubility is 28 µM (≈ 12.1 µg/mL). Also, the “Inhibition of 1A2” value at cytochrome P450 1A2 is recorded as “e 86% Inhibition of 1A2 at 10 μM”. Besides, in “Mouse PK studies”, the AUC (in general, concentration integrated over time) is 1.75 µM·h; the Cl worked out at 2.2 mL/min/kg; the concentration peaked (Cmax) at 3.2 µM; the T1/2 came out at 43.8 min. Further, the “Microsome stability T1/2 (rat)” value in data set [7] (rat liver microsomes, second value of h/r/m) is reported as 6 min. In addition, the “Microsome stability T1/2 (human)” value in data set [8] (human liver microsomes, first value of h/r/m) turned out to be 11 min. For the same compound, the “Microsome stability T1/2 (mouse)” value in data set [9] (mouse liver microsomes, third value of h/r/m) amounted to 1 min.
Turning to `c1ccc2[nH]c(CNc3nc(N4CCOCC4)nc4c3ncn4C3CCCC3)nc2c1` [SR-2149], on CK1δ [1] (setting [10]), the IC50 came to 57 nM.
For `CCN(CC)CCNC(=O)c1c(C)[nH]c(/C=C2\C(=O)Nc3ccc(F)cc32)c1C` [Sunitinib, sunitinib, reference compound], the half-life – broadly, the time needed for the level to fall by half in the phase considered – in data set [7] (rat, liver microsomes) amounted to 21 min; in [8] (human, liver microsomes), 54 min; in data set [9] (mouse, liver microsomes), 21 min.
On to `Clc1ccc2[nH]c(CNc3nc(N4CCOCC4)nc4c3ncn4-c3ccoc3)nc2c1` [SR-2850], for which, on CK1δ [1] (setting [10]), the IC50 stood at 23 nM.
For `Nc1nccc(-c2c(-c3ccc(F)cc3)ncn2C2CCCCC2)n1` [PF-670462, reference compound], in data set [4] (setting [11]), the EC50 is over 10000 nM. The “Number of kinases inhibited ≥90%” value in the data set with 442 kinases amounted to 44.
On to `CS(=O)(=O)c1cccc2[nH]c(CNc3nc(N4CCOCC4)nc4c3ncn4-c3ccsc3)nc12` [SR-2805], for which the IC50 at CK1δ [1] (setting [10]) worked out at 16 nM.
As for `N#Cc1ccc2[nH]c(CNc3nc(N4CCOCC4)nc4c3ncn4-c3ccsc3)nc2c1` [SR-1276], the IC50 at CK1δ [1] (setting [10]) turned out to be 11 nM.
With `COc1cc(OC)c(C=C2C(O)=Nc3ccccc32)c(OC)c1` [IC261], the IC50 is 1000 nM with CK1 [2] (read-out: IC50 for CK1 inhibition in vitro, in vitro) and 25 µM in the data set on CK1 [5] (read-out: IC50 for CK1 inhibition in cells, in cells).
Take `Clc1ccc2[nH]c(CNc3nc(N4CCOCC4)nc4c3ncn4-c3ccsc3)nc2c1` [SR-1274]: the IC50 on CK1δ [1] (setting [10]) was 105 nM.
As to `c1ccc2[nH]c(CNc3nc(N4CCNCC4)nc4c3ncn4-c3ccsc3)nc2c1` [SR-1292], at CK1δ [1] (setting [10]), the IC50 was determined as 3 nM. Further, the Solubility in “Solubility in PBS buffer” stood at 75 µM (≈ 32.4 µg/mL).
Consider `Fc1ccc2[nH]c(CNc3nc(N4CCOCC4)nc4c3ncn4-c3ccsc3)nc2c1` [SR-1275], for which, at CK1δ [1] (setting [10]), the IC50 amounted to 50 nM.
As for `NC1CCN(c2nc(NCc3nc4cc(Cl)ccc4[nH]3)c3ncn(-c4ccsc4)c3n2)CC1` [SR-2875], the IC50 at CK1δ [3] stood at 119 nM.
Consider `CC[C@H](CO)Nc1nc(Nc2cccc(-c3ccccn3)c2)c2ncn(C(C)C)c2n1` [(R)-DRF053], for which the IC50 in the data set on CK1 [2] (read-out: CK1 inhibition, dual CK1/CDK inhibitor) is 14 nM.
Regarding `O=[N+]([O-])c1cccc2[nH]c(CNc3nc(N4CCOCC4)nc4c3ncn4-c3ccc(F)cc3)nc12` [SR-2362], on CK1δ [1] (setting [10]), the “IC50 CK1δ” value was “essentially inactive” and the IC50 is over 1000 nM.
For the compound `CN1CCN(c2nc(NCc3nc4ccccc4[nH]3)c3ncn(-c4ccsc4)c3n2)CC1` [SR-1294], on CK1δ [1] (setting [10]), the IC50 was 11 nM.
`O=[N+]([O-])c1cccc2[nH]c(CNc3nc(N4CCOCC4)nc4c3ncn4-c3ccoc3)nc12` [SR-2007]: the IC50 on CK1δ [1] (setting [10]) amounted to 19 nM.
For `FC(F)(F)c1ccc2[nH]c(CNc3nc(N4CCOCC4)nc4c3ncn4-c3ccsc3)nc2c1` [SR-1273], the IC50 on CK1δ [1] (setting [10]) was 13 nM.
